Assay results as given in US5231216A, “Trans-2-acylaminocyclohexyloxyacyldipeptides in the form of mixtures of diastereoisomers thereof and in the form of pure diasteredisomers, process for the preparation thereof and pharmaceutical compositions containing the same” (Univerza Edvarda Kardelja v Ljubljana, priority 1990, dated 1993).
Where two headings read alike, the source gives them in different places.

Columns and labels:
[1] = system: peritoneal macrophages; assay: Activation of peritoneal macrophages (ferricytochrome C reduction) without additional PMA stimulation; assay type: in vivo, female HAN-NmRI strain mice; conditions: for Difference in absorbancies of the test sample and of the blank per mg of cell protein, x ± s.e.m (n): control 275 ± 26
Experimental: (§1) Immunological studies were performed on female HAN-NmRI strain mice of 3-4 weeks, weighing from 17-20 g.
(§2) In tests 1.1 to 1.5, the animals were first administered the Brewer's thioglycolate medium by i.p. injection, which was followed after 6 hours by the injection of 0.5 ml of a solution containing 25 μg, 2.5 μg and 0.25 μg respectively of N-acetyl-muramyl-L-alanyl-D-isoglutamine (muramyl dipeptide, MDP) or of N-[trans-2-(2'-acetylaminocyclohexyloxy)acetyl]-L-alanyl-D-glutaminic acid (compound 1, Example 12B). Equal doses were administered to the animals on days 2 and 3. On day 4 the animals were sacrificed and the spleen and the peritoneal macrophages were isolated.
(§3) The peritoneal cavity of the animals was rinsed with 4 ml of ice-cold RPMI 1640 medium. The cytolysis of erythrocytes was effected with 0.2% NaCl. The remaining cells were washed twice in a cooled centrifuge at 4° and 1500 rpm for 5 minutes with ice-cold RPMI 1640 medium. The cells were re-suspended and the concentration was adjusted to 1.5×10^6 /ml. The cell suspension was distributed among the flat bottom wells of a microtitration palte (T grade, Nunc, Denmark). After incubating for 2 hours at 37° C., 5% CO2 and 95% humidity, the wells were rinsed with warm RPMI 1640 medium and the adhering macrophages were used for testing.
(§4) After incubating for 90 minutes at 37° C., 5% CO2 and 95% humidity, the absorbance was measured at the wavelength of 570 nm.
(§5) The results are shown in Table 2 as the difference in the absorbance of the test sample and of the blank, calculated for 1 mg of cell protein.

[2] = system: Fibrosarcoma SA-1; conditions: for Time needed for the tumour growth to the volume of 150 mm^3, Number of days (± SD) / Growth delay (± SD): 5 doses; for Time needed for the tumour growth to the volume of 150 mm^3, Number of days (± SD): control 5.5 ± 0.8
Experimental: The studies were performed on A/J strain mice (Institute Rudjer Boskovic, Zagreb, Yugoslavia) of 8 to 10 weeks. All animals used in the same experiment were of the same sex and age.
Fibrosarcoma SA-1 was used as the experimental tumour model. Tumorous cells were obtained from the ascitic form of the SA-1 tumour of the syngeneic A/J mouse. They were implanted into animals dorsilaterally by s.c. injection of 5×10^5 tumour cells. The testing was started after the tumours had grown to a volume of 35 mm^3. The test substance was injected i.p. on five consecutive days in a dose of 2.5 or 25 μg. The growth of the tumours was monitored by measuring the diameters and the thickness of the tumours. The tumour volumes were calculated according to the formula 0.523×a×b×c (a, b and c being the tumour diameters).
The delay in the growth of each individual tumour was obtained by deducting the relevant time of growth of the tumour in the control group from the time needed for the growth of the tumour to reach the volume of 150 mm^3.

[3] = system: peritoneal macrophages; assay: Activation of peritoneal macrophages (ferricytochrome C reduction) with additional in vitro PMA stimulation; assay type: in vivo, female HAN-NmRI strain mice; conditions: for Difference in absorbancies of the test sample and of the blank per mg of cell protein, x ± s.e.m (n): control 1004 ± 38
Experimental: as §1, §2, §3, §4, §5

[4] = system: peritoneal macrophages; assay: Determination of the number of macrophages in peritoneal cavity washings; assay type: in vivo, female HAN-NmRI strain mice; conditions: daily doses 25, 2.5 and 0.25 μg on 3 days; after Brewer's thioglycolate stimulation
Experimental: as §1, §2
The number of macrophages in the peritoneal cavity washings was determined three days after the stimulation with Brewer's thioglycolate medium. The cells were suspended in ice-cold RPMI 1640 medium, to which trypan blue was added, and counted in Neubauer's chamber.

[5] = system: splenic lymphocytes B; assay: Determination of the number of lymphocytes B (splenic, fluorescence microscopy); assay type: in vivo, female HAN-NmRI strain mice; conditions: daily doses 25, 2.5 and 0.25 μg on 3 days; spleen isolated on day 4
Experimental: as §1, §2
(§6) To the isolated splenic lymphocytes there were added fluorescein isothiocyanate labelled antimouse antibodies (for the determination of lymphocytes B) and anti-Thy 1 monoclonal antibodies (for the determination of lymphocytes T) respectively. After incubation and rinsing with RPMI 1640 medium (Gibco, Great Britain), the lymphocytes were counted by fluorescence microscopy.

[6] = Toxicity, average lethal dose (LD50); assay type: in vivo; conditions: i.v. application, male mice
Experimental: The average lethal dose (LD50) at i.v. application of the compound 1 in male mice was >500 mg/kg.

[7] = system: splenic lymphocytes T; assay: Determination of the number of lymphocytes T (splenic, fluorescence microscopy); assay type: in vivo, female HAN-NmRI strain mice; conditions: daily doses 25, 2.5 and 0.25 μg on 3 days; spleen isolated on day 4
Experimental: as §1, §2, §6

[8] = system: splenic lymphocytes (lymphocytes T) stimulated with concanavalin A; assay: Blast transformation of lymphocytes stimulated in vitro with concanavalin A after in vivo treatment; set-up: species or system female HAN-NmRI strain mice; conditions: for Amount of active thymidine incoporated in lymphocyte DNA (cpm), x ± s.e.m (n): control 10130 ± 476
Experimental: as §1, §2
Isolated splenic lymphocytes were prepared in a concentration of 1×10^6 /ml in the RPMI 1640 medium, to which there were added 10% of foetal calf serum (FCS) (Sera-Lab, Great Britain), 1 ml of 200 mM L-glutamine solution and 1 ml of an antibiotic solution (100 U/ml of penicillin and 100 μg/ml of streptomycin) for 100 ml of complete medium. To each flat bottom well of a microtitration plate (T grade, Nunc, Denmark) 100 μl of the cell suspension were distributed. The cells were stimulated in vitro by adding concanavalin A (con A)(Pharmacia, Sweden) at respective concentrations of 16, 8, and 4 μg/ml. Control lymphocyte cultures were grown in basal medium only. The cells were then incubated at 37° C., 5% CO2 and 95% humidity for 2 days, followed by the addition of tritium labelled thymidine. After 16 hours the samples were prepared for the measurement in a β-counter. The results were expressed as incorporation indexes with respect to the control group of the animals.

[9] = system: lymphocytes B; assay: Determination of haemolytic plaques for the assessment of the maturation of lymphocytes B; assay type: in vivo, female HAN-NmRI strain mice; conditions: evaluation summary
Experimental: as §1
A 1% suspension of sheep erythrocytes (Institute of Microbiology, Faculty of Medicine, Ljubljana, Yugoslavia) in physiological saline was used for the immunisation. First, individual mice were administered 0.2 ml of this suspension by i.p. injection, followed next day by 0.1 ml (1 μg/mouse) of the test substance. The immunisation was completed on the fifth day after the administration of sheep erythrocytes and the mice were sacrificed.
Their spleens were removed and homogenized in Parker 199 Medium with added aminoacids, streptomycin and sodium carbonate (Torlak, Beograd, Yugoslavia). The lymphocytes were separated on the Ficol Separating Medium (Pharmacia, Uppsala, Sweden). After repeated rinsing with Parker 199 Medium, the cells were resuspended in RPMI 1640 nutrient medium with added 10% of foetal calf serum and streptomycin. To 50 μl of the cell suspension, 450 μl of trypan blue were added and the cells were counted in Neubauer's chamber. The number of lymphocytes per ml of the cell suspension was calculated. […] After the completion of the incubation, the plaques were counted under microscope.
The number of plaques per 1×10^6 cells was calculated according to the following equations: [formula]

[10] = Pyrogenous activity according to USP XXII; assay type: in vivo; conditions: method of USP XXII
Experimental: The pyrogenous activity was determined according to the method of USP XXII.

[11] = daily dose 0.25 μg for 3 consecutive days
[12] = daily dose 2.5 μg for 3 consecutive days
[13] = daily dose 25 μg for 3 consecutive days

In the case of `CC(=O)N[C@@H]1CCCC[C@H]1OCC(=O)N[C@@H](C)C(=O)N[C@H](CCC(=O)O)C(=O)O` (relative stereo) [Compound 1, N-[trans-2-(2'-acetylaminocyclohexyloxy)acetyl]-L-alanyl-D-glutaminic acid], the “Difference in absorbancies of the test sample and of the blank per mg of cell protein, x ± s.e.m (n)” value ([1]; daily dose 0.25 μg) is reported as 237 ± 94, the “Difference in absorbancies of the test sample and of the blank per mg of cell protein, x ± s.e.m (n)” value ([1]; daily dose 2.5 μg) is reported as 431 ± 85 and the “Difference in absorbancies of the test sample and of the blank per mg of cell protein, x ± s.e.m (n)” value ([1]; daily dose 25 μg) is reported as 489 ± 97. The “increase of macrophage activity” value ([1]; dose 2.5 μg, p<0.06) was 55%, the “difference in macrophage activation between muramyl dipeptide and compound 1” value ([1]; dose 25 μg) was “no statistically significant different” and the “increase of macrophage activity” value ([1]; dose 25 μg, p<0.05) was 70%. The “Time needed for the tumour growth to the volume of 150 mm^3, Number of days (± SD)” value ([2]; 2.5 μg daily i.p.) was 6.4 ± 0.9 days, the “Growth delay (± SD)” value ([2]; 2.5 μg daily i.p., p<0.2 compared with control) was 0.9 ± 0.4 and the “Time needed for the tumour growth to the volume of 150 mm^3, Number of days (± SD)” value ([2]; 25.0 μg daily i.p.) was 7.3 ± 1.3 days. For the same molecule, the “Growth delay (± SD)” value ([2]; 25.0 μg daily i.p., p<0.002 compared with control) was 1.8 ± 0.4, the “difference in antitumour activity between the higher and the lower dose” value ([2]; 25 μg versus 2.5 μg) was “no statistically significant difference in activity between the higher and the lower dose” and the “delay in tumour growth in combination with tumour necrosis factor” value ([2]; compound 1 2.5 μg combined with recombinant tumour necrosis factor α (5×10^5 U)) was “increased delay in tumour growth”. For the same molecule, the “antitumour activity in comparison to the control” value ([2]; dose 25 μg, p<0.002) was “moderate and statistically significant”, the “Difference in absorbancies of the test sample and of the blank per mg of cell protein, x ± s.e.m (n)” value [3, 11] was 1298 ± 334 and the “Difference in absorbancies of the test sample and of the blank per mg of cell protein, x ± s.e.m (n)” value [3, 12] was 1494 ± 199. For the same molecule, the “Difference in absorbancies of the test sample and of the blank per mg of cell protein, x ± s.e.m (n)” value [3, 13] was 1709 ± 374, the “increase of macrophage activity” value ([3]; dose 2.5 μg, p<0.05) was 50% and the “difference in macrophage activation between muramyl dipeptide and compound 1” value ([3]; dose 25 μg) was “no statistically significant different”. The “increase of macrophage activity” value ([3]; dose 25 μg) was 70%, the “number of peritoneal macrophages” value [4] was “not altered to a statistically significant extent” and the “number of splenic lymphocytes B” value [5] was “Neither the number of splenic lymphocites B nor of lymphocytes T was altered to a statistically significant extent”. The “average lethal dose (LD50)” value [6] was > 500 mg/kg, the “number of splenic lymphocytes T” value [7] was “Neither the number of splenic lymphocites B nor of lymphocytes T was altered to a statistically significant extent” and the “Amount of active thymidine incoporated in lymphocyte DNA (cpm), x ± s.e.m (n)” value (shortened to “Amount of active thymidine incoporated”) [8, 11] was 10780 ± 2680 cpm. For the same molecule, the “Amount of active thymidine incoporated” value [8, 12] was 16830 ± 6610 cpm, the “Amount of active thymidine incoporated” value [8, 13] was 25990 ± 7850 cpm and the “immunomodulatory effect in lymphocytes T compared with MDP” value ([8]; dose 25 μg) was “statistically greater (p<0.05) immunomodulatory effect”. For the same molecule, the “increase of the blastic activity of lymphocytes T” value ([8]; dose 25 μg, p<0.05, versus control) was “about 150%”, the “maturation of lymphocytes B to plasma cells” value [9] was “enhances the muturation of lymphocytes B to plasma cells” and the pyrogenous activity [10] was “did not show any pyrogenous activity”.
